Source: the NIST ThermoML archive (doi:10.1016/j.fluid.2010.03.017)

Key:
[1] = specific heat capacity at constant pressure; cn = amount concentration of the nth substance listed, in mol/dm3; details: 101 kPa, Liquid, heat flux microcalorimetry
[2] = cn = amount concentration of the nth substance listed, in mol/dm3; details: 101 kPa, Liquid

O [water] + [Cl-].c1ccc([P+](c2ccccc2)(c2ccccc2)c2ccccc2)cc1
c2 = 0
Details | mass density, 311.65 K [kg/m3] | mass density, 314.65 K [kg/m3] | specific heat capacity, 308.65 K [J/K/kg] | specific heat capacity, 311.65 K [J/K/kg] | specific heat capacity, 314.65 K [J/K/kg]
[1] | – | – | 4182 | 4182.2 | 4182.4
[2] | 993.13 | 991.68 | – | – | –

[Cl-].c1ccc([P+](c2ccccc2)(c2ccccc2)c2ccccc2)cc1 [tetraphenylphosphonium chloride] + CO
Details | mass density, c1 = 0.005 [kg/m3] | mass density, c1 = 0.01 [kg/m3] | mass density, c1 = 0.02 [kg/m3] | mass density, c1 = 0.05 [kg/m3] | mass density, c1 = 0.1 [kg/m3] | specific heat capacity, c1 = 0.005 [J/K/kg] | specific heat capacity, c1 = 0.01 [J/K/kg] | specific heat capacity, c1 = 0.02 [J/K/kg] | specific heat capacity, c1 = 0.05 [J/K/kg] | specific heat capacity, c1 = 0.1 [J/K/kg]
[1], 308.65 K | – | – | – | – | – | 2543.2 | 2548.5 | 2556.9 | 2605.5 | 2660.8
[1], 311.65 K | – | – | – | – | – | 2564.1 | 2565.8 | 2582.9 | 2628.9 | 2691.7
[1], 314.65 K | – | – | – | – | – | 2570.9 | 2605.9 | 2599.5 | 2637.3 | 2721.3
[2], 308.65 K | 776.52 | 779.51 | 780.37 | 787.22 | 793.29 | – | – | – | – | –
[2], 311.65 K | 774.51 | 778.81 | 777.85 | 784.14 | 790.42 | – | – | – | – | –
[2], 314.65 K | 771.62 | 775.7 | 774.95 | 782.06 | 788.49 | – | – | – | – | –

CC#N [acetonitrile] + [Cl-].c1ccc([P+](c2ccccc2)(c2ccccc2)c2ccccc2)cc1
c2 = 0
Details | mass density, 308.65 K [kg/m3] | mass density, 311.65 K [kg/m3] | mass density, 314.65 K [kg/m3] | specific heat capacity, 308.65 K [J/K/kg] | specific heat capacity, 311.65 K [J/K/kg] | specific heat capacity, 314.65 K [J/K/kg]
[1] | – | – | – | 2274.3 | 2280.4 | 2286.5
[2] | 765.82 | 762.77 | 759.726 | – | – | –

[Cl-].c1ccc([P+](c2ccccc2)(c2ccccc2)c2ccccc2)cc1 [tetraphenylphosphonium chloride] + CC#N
Details | mass density, c1 = 0.005 [kg/m3] | mass density, c1 = 0.01 [kg/m3] | mass density, c1 = 0.02 [kg/m3] | mass density, c1 = 0.05 [kg/m3] | mass density, c1 = 0.1 [kg/m3] | specific heat capacity, c1 = 0.005 [J/K/kg] | specific heat capacity, c1 = 0.01 [J/K/kg] | specific heat capacity, c1 = 0.02 [J/K/kg] | specific heat capacity, c1 = 0.05 [J/K/kg] | specific heat capacity, c1 = 0.1 [J/K/kg]
[1], 308.65 K | – | – | – | – | – | 2269.4 | 2269.1 | 2258.9 | 2255.3 | 2238.7
[1], 311.65 K | – | – | – | – | – | 2275.5 | 2277 | 2267.8 | 2265.6 | 2250.6
[1], 314.65 K | – | – | – | – | – | 2281.3 | 2282.6 | 2274.3 | 2267.5 | 2257.9
[2], 308.65 K | 767.478 | 768.43 | 772.35 | 776.18 | 784.14 | – | – | – | – | –
[2], 311.65 K | 764.4 | 765.22 | 769.19 | 773.42 | 780.77 | – | – | – | – | –
[2], 314.65 K | 762.76 | 762.76 | 766.82 | 770.87 | 777.19 | – | – | – | – | –

[Cl-].c1ccc([P+](c2ccccc2)(c2ccccc2)c2ccccc2)cc1 [tetraphenylphosphonium chloride] + O
Details | mass density, c1 = 0.005 [kg/m3] | mass density, c1 = 0.01 [kg/m3] | mass density, c1 = 0.02 [kg/m3] | mass density, c1 = 0.05 [kg/m3] | mass density, c1 = 0.1 [kg/m3] | specific heat capacity, c1 = 0.005 [J/K/kg] | specific heat capacity, c1 = 0.01 [J/K/kg] | specific heat capacity, c1 = 0.02 [J/K/kg] | specific heat capacity, c1 = 0.05 [J/K/kg] | specific heat capacity, c1 = 0.1 [J/K/kg]
[1], 308.65 K | – | – | – | – | – | 4202.5 | 4203.6 | 4207 | 4217.3 | 4229.9
[1], 311.65 K | – | – | – | – | – | 4203.6 | 4206.5 | 4209.8 | 4218.4 | 4241.9
[1], 314.65 K | – | – | – | – | – | 4203.8 | 4208.4 | 4211.1 | 4219.7 | 4244.7
[2], 308.65 K | 994.05 | 995.67 | 998.12 | 996.84 | 1001.06 | – | – | – | – | –
[2], 311.65 K | 993.46 | 994.88 | 996.99 | 995.58 | 997.28 | – | – | – | – | –
[2], 314.65 K | 991.77 | 992.33 | 995.43 | 994.11 | 995.93 | – | – | – | – | –

CO [methanol] + [Cl-].c1ccc([P+](c2ccccc2)(c2ccccc2)c2ccccc2)cc1
c2 = 0
Details | mass density, 308.65 K [kg/m3] | mass density, 311.65 K [kg/m3] | mass density, 314.65 K [kg/m3] | specific heat capacity, 308.65 K [J/K/kg] | specific heat capacity, 311.65 K [J/K/kg] | specific heat capacity, 314.65 K [J/K/kg]
[1] | – | – | – | 2554.5 | 2577 | 2621
[2] | 776.519 | 773.896 | 771.1 | – | – | –

[Cl-].c1ccc([P+](c2ccccc2)(c2ccccc2)c2ccccc2)cc1 [tetraphenylphosphonium chloride] + CCO
Details | mass density, c1 = 0.005 [kg/m3] | mass density, c1 = 0.01 [kg/m3] | mass density, c1 = 0.02 [kg/m3] | mass density, c1 = 0.05 [kg/m3] | mass density, c1 = 0.1 [kg/m3] | specific heat capacity, c1 = 0.005 [J/K/kg] | specific heat capacity, c1 = 0.01 [J/K/kg] | specific heat capacity, c1 = 0.02 [J/K/kg] | specific heat capacity, c1 = 0.05 [J/K/kg] | specific heat capacity, c1 = 0.1 [J/K/kg]
[1], 308.65 K | – | – | – | – | – | 2520.9 | 2545.7 | 2549.3 | 2555.5 | 2570
[1], 311.65 K | – | – | – | – | – | 2581.5 | 2600.7 | 2606.3 | 2607.1 | 2623
[1], 314.65 K | – | – | – | – | – | 2627.1 | 2638.3 | 2650.8 | 2650 | 2633.7
[2], 308.65 K | 777.31 | 778.02 | 778.83 | 784.24 | 791.62 | – | – | – | – | –
[2], 311.65 K | 775.32 | 775.16 | 776.11 | 781.91 | 789.98 | – | – | – | – | –
[2], 314.65 K | 772.48 | 772.21 | 773.38 | 779.58 | 787.77 | – | – | – | – | –

CCO [ethanol] + [Cl-].c1ccc([P+](c2ccccc2)(c2ccccc2)c2ccccc2)cc1
c2 = 0
Details | mass density, 308.65 K [kg/m3] | mass density, 311.65 K [kg/m3] | mass density, 314.65 K [kg/m3] | specific heat capacity, 308.65 K [J/K/kg] | specific heat capacity, 311.65 K [J/K/kg] | specific heat capacity, 314.65 K [J/K/kg]
[1] | – | – | – | 2592.8 | 2653.8 | 2694.1
[2] | 775.93 | 773.4 | 770.84 | – | – | –
